US20210008137A1, “EXTRACTS OF COPRINUS COMATUS AND THEIR USE FOR REGULATING THE PILOSEBACEOUS UNIT IN A HUMAN” (Symrise AG, priority 2017, published 2021)

System: human sebaceous glands (hSGs)
Assay: Sebum content of ex-vivo cultured human sebaceous glands (lipids/proteins ratio)
Assay type: cell-based
Details: 5 μM, positive control; for Sebum content in hSGs, Average as % ratio of the control group: day 6 of organ culture
Description: At the end of the culture time, the sebum was extracted and quantified from each experimental group of hSGs and then normalized by the proteins extracted from the residual hSG material (mg lipids/mg proteins). As a result, the biological activity of the tested compounds is inferred by comparing the lipids/proteins ratio of the treated glands with that of the control group. Using micro-scissors and tweezers, hSGs were isolated from the pilosebaceous units of a scalp skin sample. […] After 24 hours of culture the viability of the glands was assessed via resazurin assay and then, having attested their good viability, the culture medium was substituted with the same medium supplemented with experimental extracts, whereas the control group received again the standard medium. The culture medium was renewed every other day. At day six of the organ culture, after having preventively verified the good viability of the hSGs via resazurine assay, each group of hGSs was collected and analyzed for quantifying the sebum content. […] Methods are described in detail in WO2016020339 A8. The amounts of normalized lipids obtained from the treated groups, i.e. the sebum produced by each group of hSGs, were expressed in percentages with respect to the value obtained from the control group, in order to point out the regulatory effect performed by the experimental treatment.

COc1cc(CNC(=O)CCCC/C=C/C(C)C)ccc1O [capsaicin, Capsaicin]
Reduction of the sebum content of the hSGs in comparison with the control group (Table 6 experiment): 26.5% | Sebum content in hSGs, Average as % ratio of the control group (Table 6 experiment): 73.5% | Sebum content in hSGs, Average as % ratio of the control group (Table 7 experiment): 88.3%
